US20210393558A1, “METHODS AND COMPOSITIONS FOR PREVENTION AND TREATMENT OF PRESSURE ULCERS” (TECHNION RESEARCH AND DEVELOPMENT FOUNDATION LTD., priority 2017, published 2021)

Experiments:
[1] = 3%-cream applied on the skin, after 24 hours; cited from earlier work
[2] = cited from earlier work
NIH3T3 fibroblasts [3] = assay: Membrane permeability (FITC-labeled 4 kDa dextran uptake, FACS) under damage-level 12% strain; type: cell-based, murine; details: increasing concentrations of NaPy pre-treatment (0, 1, 5 mM, 4 hours), 12% strain 3 hrs
Protocol: (§1) For each experiment, 300,000 cells were cultured 24 hours in parallel on 2-4 bioflexcell collagen-coated 6-well plates (Flexcell Inc., North Carolina). On the day of the experiment the cell growth media (with 0/1 mM NaPy) was replaced with media supplemented with different NaPy concentrations (0, 1 or 5 mM) and cells were incubated for 4 hours; this constitutes the pre-treatment of the cells. A four-hour pre-treatment was chosen as that is a clinically relevant time-scale during preparation e.g. before planned surgical procedures.
(§2) Each 6-well plate contained two wells with each of the three NaPy pre-treatment concentrations. After 4 hours, all but one of the bioflexcell plates were simultaneously subjected to damaging-level, sustained strain-loads of 12% radial stretching for 3 hours and one plate in each experiment was not stretched for control. […] Next, cells were centrifuged (900 rpm for 5 min) and resuspended in 0.5 ml of PBS within 12×75 mm polystyrene test tubes for use with fluorescence activated cell sorting (FACS).
(§3) Permeability of the plasma membrane was quantified by cell uptake of the small (4 kDa) FITC-labeled Dextran. Fluorescence intensity changes due to internalized FITC-labeled Dextran and auto fluorescence of over 20,000 cells per sample was measured using a fluorescence-activated cell sorting (FACS) Calibur system (BD Biosciences, New Jersey) with the fluorescence channel. […] For each pre-treatment (and growth media) condition 4 measurements were collected: strain-loaded cells with or without added dextran, and unstrained control cells with or without dextran; samples without dextran provide a control for native cell auto-fluorescence (AF). The percent change in dextran uptake is calculated by the mean value of the strained sample relative to the unstrained samples, after subtracting the auto-fluorescence for each. […]

C2C12 myoblasts [4] = assay: as above; type: cell-based, murine
Protocol: as §1, §2, §3

[5] = group given NaPy eye drops, 2 hours prior to extraction; control 0.145+/−0.06 mM; cited from earlier work
NIH3T3 fibroblasts [6] = assay: Gap closure of damaged monolayers with low/medium-level stretching; type: cell-based, Mouse; details: 0% stretching, post-injury NaPy 0, 1 or 5 mM
Protocol: (§4) Mouse myoblast or fibroblast cells (1×10^6 per well, previously grown media containing 1 mM NaPy) were seeded 1-3 days prior to performing a stretching experiment in a six-well (31-mm diameter) culture plate with an elastic, 0.51-mm thick, transparent and collagen-coated substrata bottom (Flexcell Inc., Burlington, N.C.). Cells were grown on the stretchable-bottom plate until a confluent monolayer had formed. The plates with cells were then mounted onto our stretching apparatus and radial stretching to tensile strains of 3% or 6% or 0% (no-stretch) control was applied Immediately following stretching, compressive deformation damage was induced in each monolayer using a rigid optic fiber (˜350 μm diameter). Cells at the center of each well were crushed, inducing an approximately circular cell-damage area with varying sizes (0.05-0.5 mm^2). Media was replaced to remove any cell debris and the fresh media contained varying concentrations of sodium pyruvate: 0, 1 or 5 mM. Then the time-dependent gap closure was evaluated to reveal kinematic features The stretching apparatus was mounted in the motorized microscope stage to facilitate for time-lapse imaging of progression of the gap closure. Cell viability throughout the prolonged experiments was ensured by maintaining 37° C., 5% CO2 and high humidity, using an incubator that enclosed the microscope (Life Imaging Services, Basel, Switzerland).
(§5) Time-lapse imaging was performed using a fully motorized, inverted fluorescence microscope (Olympus IX81, Tokyo, Japan) with a custom MATLAB 2012b (The MathWorks, Natick, Mass.) graphical user interface (GUI) module to automatically control lens positioning and collect images of the gap every 10 minutes for up to 24 hours. Images were taken using an XR Mega-10AWCL camera (Stanford Photonics Inc., Palo Alto, Calif.), using a 10×/NA 0.3 long working-distance, air immersion objective lens at a final magnification of 646.8 nm/pixel. A custom algorithm in MATLAB 2012b was used to automatically analyze the time-progression images of the gap area closure and quantify cell migration and gap closure progression, as described in Topman et al. (Micron 51:9-12; 2012); Toume et al. Int Wound J 14:698-703; 2017). Briefly, the time-dependent area was fit to a Richard's function, which is an asymmetric sigmoid, by minimizing the mean squared error. Using the fitted curve, the maximum migration rate was calculated, which is the maximal slope of the area vs. time, Richards fit. The normalized maximum migration rate was obtained by dividing the maximum migration rate by the initial gap area. In addition, the time for 90% gap area closure, which is indicative of the end of the en masse cell migration regime was obtained (Topman et al. 2012; Med Eng Phys 34:225-232).
(§6) Results of the different conditions were compared using a two-way analysis of variance (ANOVA) for unequal length samples; Statistical analysis was performed in MATLAB. The interaction parameter was found significant, thus the interactions between the sodium pyruvate concentration and the stretching level and were important; in cases where only the interaction parameter the interaction is considered ‘simple’ by typical definitions in statistical analysis. A one-way ANOVA was also performed in conjunction with post-hoc Tukey-Kramer tests to identify statistically significant differences levels of sodium pyruvate for each level of stretching and vice versa. A P-value lower than 0.05 was considered significant.
(§7) Both tested cell types, C2C12 myoblasts and NIH3T3 fibroblasts were cultured in media with 1 mM sodium pyruvate up to the time of infliction of compressive deformation damage (micro-gap formation) and concurrent application of radial stretching. […]

C2C12 myoblasts [7] = assay: as above; type: cell-based, Mouse
Protocol: as §4, §5, §6, §7

[8] = adopted from the literature, model input
[9] = 1 mM NaPy with 3% stretching vs no NaPy
[10] = 5 mM NaPy with 3% stretching vs no NaPy

| Structure (SMILES) | transdermal flux [1] | Solubility in the aqueous phase of the dressing and tissues [2, 8] [mg/mL] | diffusivity in the aqueous phase of the dressing and tissues [2, 8] [mm^2/s] | free diffusivity in the aqueous phase of the dressing and tissues [2, 8] [mm^2/s] | log Ko/W ([2]; input of the Kp equation) | damage to membrane integrity (uptake relative to control) (NIH3T3 fibroblasts [3]) | cell damage-induced uptake of dextran relative to control (C2C12 myoblasts [4]; NaPy pre-treatment 0, 1, 5 mM for 4 hours, then 12% sustained stretch 3 hrs) | strain-damage induced membrane poration (C2C12 myoblasts [4]; cultured in media containing 1 mM NaPy, pre-treated with 5 mM NaPy, 12% strain 3 hrs) | level of NaPy in corneal tissue [5] [µM] | gap closure rate (NIH3T3 fibroblasts [6]) | gap closure rate (C2C12 myoblasts [7]; 0% stretching, post-injury NaPy 0, 1 or 5 mM) | normalized gap-closure rate (C2C12 myoblasts [7]; 1 mM NaPy post-injury with 3% stretching (16.3 without NaPy)) [% area/hr] | time to reach 90% gap coverage (C2C12 myoblasts [7]; 1 mM NaPy with 3% stretching (9.2 hrs without NaPy)) [h] | decrease of time to reach 90% gap coverage (C2C12 myoblasts [7]; [9]) [%] | increase of normalized gap-closure rate (C2C12 myoblasts [7]; [9]) [%] | normalized gap-closure rate (C2C12 myoblasts [7]; 5 mM NaPy post-injury with 3% stretching (16.3 without NaPy)) [% area/hr] | time to reach 90% gap coverage (C2C12 myoblasts [7]; 5 mM NaPy with 3% stretching (9.2 hrs without NaPy)) [h] | decrease of time to reach 90% gap coverage (C2C12 myoblasts [7]; [10]) [%] | increase of normalized gap-closure rate (C2C12 myoblasts [7]; [10]) [%] | gap closure (C2C12 myoblasts [7]; 3% strain combined with post-injury exogenous NaPy supplement (1 or 5 mM)) |
| --- | --- | --- | --- | --- | --- | --- | --- | --- | --- | --- | --- | --- | --- | --- | --- | --- | --- | --- | --- | --- |
| O=C(O)Cc1ccccc1Nc1c(Cl)cccc1Cl [Diclofenac Sodium] | 0.321-0.943 nmol/cm^2·h |  |  |  |  |  |  |  |  |  |  |  |  |  |  |  |  |  |  |  |
| CC(=O)C(=O)[O-].[Na+] [NaPy, sodium pyruvate] |  | 100 | 0.0005 | 0.001 | −5.05 | reduced damage to membrane integrity | a reduction was observed in the cell damage-induced uptake of dextran relative to control that is proportional to the NaPy concentration | a reduction was observed in the strain-damage induced membrane poration to insignificant levels | 350 to 525 | unaffected | unaffected | 20.5 | 7.3 | 21 | 26 | 23.7 | 6.3 | 31 | 46 | successfully accelerated gap closure in a concentration dependent and statistically significant manner |
